Measured values taken from patent publication US20230074252A1, “DOSAGES AND METHODS FOR TREATING PULMONARY ARTERIAL HYPERTENSION WITH RODATRISTAT” (Altavant Sciences GmbH, priority 2020, published 2023).

Key:
CYP2D6 = CYP2D6 (Homo sapiens, UniProt P10635); assay: FDA guidance DDI risk assessment, perpetrator potential; parameters: from tissue; host or cells: pooled human liver microsomes (n=200 donors); conditions: predicted @ 600 mg BID
Experimental: (§1) The potential for rodatristat ethyl or rodatristat to be perpetrators of drug-drug interactions was assessed across in vitro CYP and transporter studies (Tables 1-4). […] This analysis was performed to assess the potential for clinically meaningful DDIs as recommended in FDA Draft Guidance: “In Vitro Metabolism- and Transporter-Mediated Drug-Drug Interaction Studies Guidance for Industry”; October 2017 (FDA, 2017).
(§2) R1 and R3 values using free (non-protein bound) drug levels were calculated based on plasma protein binding (fraction bound, fb) of rodatristat ethyl (0.995) and rodatristat (0.991). The FDA Guidance is set forth In Vitro Metabolism- and Transporter-Mediated Drug-Drug Interaction Studies Guidance for Industry (2017). […] Parameters for the prediction are set forth below in Tables 5 and 6.

CYP2C19 = CYP2C19 (Homo sapiens, UniProt P33261); assay: as above; parameters: from tissue; host or cells: pooled human liver microsomes (n=200 donors); conditions: predicted @ 600 mg BID
Experimental: as §1, §2

CYP2B6 = target: T1, CYP2B6 (Homo sapiens, UniProt P20813); assay: as above; parameters: from tissue; host or cells: pooled human liver microsomes (n=200 donors); conditions: predicted @ 600 mg BID
T1 sequence (P20813 1-491): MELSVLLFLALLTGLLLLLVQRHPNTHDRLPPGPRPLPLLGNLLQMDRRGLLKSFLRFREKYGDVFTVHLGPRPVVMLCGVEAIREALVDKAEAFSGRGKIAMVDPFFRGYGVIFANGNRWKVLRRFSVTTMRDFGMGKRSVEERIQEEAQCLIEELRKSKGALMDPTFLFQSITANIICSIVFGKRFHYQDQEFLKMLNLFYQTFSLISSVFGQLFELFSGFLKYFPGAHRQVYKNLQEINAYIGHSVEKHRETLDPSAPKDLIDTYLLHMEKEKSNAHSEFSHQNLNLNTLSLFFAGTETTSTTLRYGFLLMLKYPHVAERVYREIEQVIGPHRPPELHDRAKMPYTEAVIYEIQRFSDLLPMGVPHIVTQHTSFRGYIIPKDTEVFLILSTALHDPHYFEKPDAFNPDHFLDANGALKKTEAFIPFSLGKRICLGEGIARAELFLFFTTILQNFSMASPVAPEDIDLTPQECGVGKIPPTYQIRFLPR
Experimental: as §1, §2

OATP1B3 = target: T2, OATP1B3 (Homo sapiens, UniProt Q9NPD5); assay: Transporter inhibition, HEK293 cells, estradiol-17β-glucuronide probe; type: in vitro ADME; conditions: for Calculated Values, R-value, OATP1B3 / Potential for interaction? (transporter inhibitor), OATP1B3: predicted @ 600 mg BID; for IC50: read-out: In vitro IC50, OATP1B3
T2 construct: expressed in transfected cells; host or cells: HEK293
T2 sequence (Q9NPD5 1-702): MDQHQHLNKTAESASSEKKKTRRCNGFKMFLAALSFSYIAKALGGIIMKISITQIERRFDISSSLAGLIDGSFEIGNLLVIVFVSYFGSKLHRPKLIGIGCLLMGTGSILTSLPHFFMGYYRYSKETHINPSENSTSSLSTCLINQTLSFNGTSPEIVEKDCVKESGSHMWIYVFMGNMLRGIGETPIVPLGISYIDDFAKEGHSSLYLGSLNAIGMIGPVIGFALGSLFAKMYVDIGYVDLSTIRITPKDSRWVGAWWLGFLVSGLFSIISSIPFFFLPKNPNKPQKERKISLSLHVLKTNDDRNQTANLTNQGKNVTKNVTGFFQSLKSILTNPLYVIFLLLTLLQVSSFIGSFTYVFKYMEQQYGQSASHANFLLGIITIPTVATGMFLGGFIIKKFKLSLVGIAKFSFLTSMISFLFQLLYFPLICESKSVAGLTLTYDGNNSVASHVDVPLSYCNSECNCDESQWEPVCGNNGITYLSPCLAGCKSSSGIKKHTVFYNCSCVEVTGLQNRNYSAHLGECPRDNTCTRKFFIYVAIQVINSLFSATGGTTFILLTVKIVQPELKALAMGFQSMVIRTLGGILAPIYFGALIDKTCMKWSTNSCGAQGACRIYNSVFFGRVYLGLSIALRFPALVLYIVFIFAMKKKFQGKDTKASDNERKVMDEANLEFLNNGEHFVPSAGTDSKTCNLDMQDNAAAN
Experimental: (§3) The competitive inhibition of specific transporters was investigated for RVT-1201 and KAR5417 in transporter-expressing in vitro systems (XT158039). Inhibition of P-gp was evaluated using a Caco-2 cell line with digoxin as probe substrate. Inhibition of OATP1B1 and OATP1B3 was evaluated using a HEK293 cell line expressing these transporters with estradiol-17β-glucuronide as probe substrate. In addition, inhibition of other transporters was also investigated (BCRP, OAT1, OAT3, OCT2, MATE1, MATE2-K). The IC50 estimates for P-gp (RVT-1201) and OATP1B1/3 (RVT-1201 and KAR5417) supported further evaluation of inhibition DDI potential using the PBPK model. For each IC50 estimate, substrate concentration and Km were used to estimate RVT-1201 and KAR5417 Ki with Equation 1 (Cheng and Prusoff, 1973).

OATP1B1 = target: T3, OATP1B1 (Homo sapiens, UniProt Q9Y6L6); assay: as above; type: in vitro ADME; conditions: for Calculated Values, R-value, OATP1B1 / Potential for interaction? (transporter inhibitor), OATP1B1: predicted @ 600 mg BID; for IC50: read-out: In vitro IC50, OATP1B1
T3 construct: expressed in transfected cells; host or cells: HEK293
T3 sequence (Q9Y6L6 1-691): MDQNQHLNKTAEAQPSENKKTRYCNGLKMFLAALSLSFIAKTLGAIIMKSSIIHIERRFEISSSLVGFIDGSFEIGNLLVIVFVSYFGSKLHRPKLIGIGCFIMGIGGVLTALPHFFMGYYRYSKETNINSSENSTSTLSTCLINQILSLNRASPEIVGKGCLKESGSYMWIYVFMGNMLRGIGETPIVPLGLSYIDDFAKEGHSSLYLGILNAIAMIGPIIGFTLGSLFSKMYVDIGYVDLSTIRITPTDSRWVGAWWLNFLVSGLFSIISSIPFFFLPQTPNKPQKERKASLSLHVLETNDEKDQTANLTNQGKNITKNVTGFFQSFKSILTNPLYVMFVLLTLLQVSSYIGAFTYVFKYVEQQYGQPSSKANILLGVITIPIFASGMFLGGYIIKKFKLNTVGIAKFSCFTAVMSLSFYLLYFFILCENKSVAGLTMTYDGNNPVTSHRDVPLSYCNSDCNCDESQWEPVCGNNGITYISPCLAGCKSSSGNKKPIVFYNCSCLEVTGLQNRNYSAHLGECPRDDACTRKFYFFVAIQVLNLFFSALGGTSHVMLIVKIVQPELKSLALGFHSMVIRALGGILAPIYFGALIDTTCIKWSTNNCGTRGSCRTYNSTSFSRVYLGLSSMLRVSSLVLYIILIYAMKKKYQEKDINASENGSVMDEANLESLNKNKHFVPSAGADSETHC
Experimental: as §3

Sequence of CYP2C19 (P33261 whole entry): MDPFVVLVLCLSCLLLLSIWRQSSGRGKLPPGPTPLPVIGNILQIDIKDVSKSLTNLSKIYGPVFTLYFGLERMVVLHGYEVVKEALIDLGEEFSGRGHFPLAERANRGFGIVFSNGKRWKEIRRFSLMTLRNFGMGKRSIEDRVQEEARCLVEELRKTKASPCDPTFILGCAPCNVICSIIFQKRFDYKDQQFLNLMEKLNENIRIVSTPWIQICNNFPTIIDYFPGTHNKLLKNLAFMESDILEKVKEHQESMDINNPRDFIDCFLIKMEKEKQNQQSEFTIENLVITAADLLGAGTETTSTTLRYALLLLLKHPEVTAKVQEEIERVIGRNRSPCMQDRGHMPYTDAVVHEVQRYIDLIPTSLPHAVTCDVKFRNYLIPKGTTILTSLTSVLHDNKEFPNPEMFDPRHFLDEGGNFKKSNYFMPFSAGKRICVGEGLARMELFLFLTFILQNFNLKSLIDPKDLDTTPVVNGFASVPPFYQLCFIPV
Sequence of CYP2D6 (P10635 whole entry): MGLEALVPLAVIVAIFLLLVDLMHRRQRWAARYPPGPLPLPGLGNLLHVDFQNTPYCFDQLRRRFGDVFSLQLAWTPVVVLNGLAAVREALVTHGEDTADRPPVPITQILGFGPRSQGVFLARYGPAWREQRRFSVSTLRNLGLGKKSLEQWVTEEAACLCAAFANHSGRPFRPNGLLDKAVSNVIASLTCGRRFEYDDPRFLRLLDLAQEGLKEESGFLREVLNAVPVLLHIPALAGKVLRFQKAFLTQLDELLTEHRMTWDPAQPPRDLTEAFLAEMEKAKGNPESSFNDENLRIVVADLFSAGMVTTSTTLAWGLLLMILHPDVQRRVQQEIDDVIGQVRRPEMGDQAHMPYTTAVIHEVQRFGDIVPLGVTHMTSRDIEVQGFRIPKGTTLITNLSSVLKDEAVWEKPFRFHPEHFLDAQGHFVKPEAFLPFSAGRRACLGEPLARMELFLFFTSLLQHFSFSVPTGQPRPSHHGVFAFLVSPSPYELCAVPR

Row | SMILES | Potential for interaction (perpetrator), CYP2D6 (CYP2D6) | Potential for interaction (perpetrator), CYP2C19 (CYP2C19) | Potential for interaction (perpetrator), CYP2B6 (CYP2B6) | Calculated Values, R-value, OATP1B3 (OATP1B3) | Potential for interaction? (transporter inhibitor), OATP1B3 (OATP1B3) | Calculated Values, R-value, OATP1B3 (OATP1B3; listed as rodatristat ethyl) | IC50 (OATP1B3) | Calculated Values, R-value, OATP1B1 (OATP1B1) | Potential for interaction? (transporter inhibitor), OATP1B1 (OATP1B1) | IC50 (OATP1B1)
1 | CCOC(=O)[C@@H]1CC2(CCN(c3cc(O[C@H](c4ccc(Cl)cc4-c4ccccc4)C(F)(F)F)nc(N)n3)CC2)CN1 [Rodatristat ethyl, (S)-ethyl 8-(2-amino-6-((R)-1-(5-chloro-[1,1′-biphenyl]-2-yl)-2,2,2-trifluoroethoxy)pyrimidin-4-yl)-2,8-diazaspiro[4.5]decane-3-carboxylate] | No | No | Yes | <1.1 | No | < 1.1 | 12.3 µM | <1.1 | No | 25.4 µM
2 | Nc1nc(O[C@H](c2ccc(Cl)cc2-c2ccccc2)C(F)(F)F)cc(N2CCC3(CC2)CN[C@H](C(=O)O)C3)n1 [Rodatristat, (S)-8-(2-amino-6-((R)-1-(5-chloro-[1,1′-biphenyl]-2-yl)-2,2,2-trifluoroeth-oxy)pyrimidin-4-yl)-2,8-diazaspiro[4.5]decane-3-carboxylic acid] | No | No | Yes | 1.26 | Yes | – | 1.93 µM | <1.1 | No | 5.74 µM
